Measurements taken from patent US10022387B2, “Aza-heteroaryl compounds as PI3K-gamma inhibitors” (Incyte Corporation, priority 2015, dated 2018).
Structures can show the parent of a compound that is named as a salt.

The compounds below were run on Phosphorylated Ribosomal Protein S6 (RPS6) in THP-1 cells (assay: THP-1 RPS6 ELISA Assay). Conditions: Homo sapiens, 2 hours with compound, 10 nM MCP-1 for 15 minutes, read-out: THP p-RPS6 ELISA IC50.
Type: cell-based
Experimental: To measure the Phosphorylated Ribosomal Protein S6 (RPS6) in cell lysates, THP-1 cells (Human Acute Monocytic Leukemia) are purchased from ATCC (Manassas, Va.) and maintained in RPMI with 10% FBS (Gibco/Life Technologies, Carlsbad, Calif.). For the assay, THP-1 cells are serum starved overnight in RPMI, then plated in RPMI (2×10^5 cells/well in 90 μL) into 96-well flat-bottom tissue culture treated plates (Corning, Corning, N.Y.), in the presence or absence of a concentration range of test compounds. Covered plates are incubated for 2 hours at 37° C., 5% CO2 then treated with or without 10 nM MCP-1 (MYBioSource, San Diego, Calif.) for 15 minutes at 37° C., 5% CO2. Plates are centrifuged at 1600 RPM and supernatants are removed. Cells are lysed in Lysis Buffer (Cell Signaling, Danvers, Mass.) with Protease Inhibitor (Calbiochem/EMD, Germany), PMSF (Sigma, St. Louis, Mo.), HALTS (Thermo Fisher, Rockford, Ill.) for 30 min on wet ice. Cell lysates are frozen at −80° C. before testing. The lysates are tested in the Human/Mouse/Rat Phospho-RPS6 ELISA (R&D Systems, Inc. Minn, Minn.). The plate is measured using a microplate reader (SpectraMax M5—Molecular Devices, LLC Sunnyvale, Calif.) set to 450 nm with a wavelength correction of 540. IC50 determination is performed by fitting the curve of inhibitor percent inhibition versus the log of the inhibitor concentration using the GraphPad Prism 5.0 software.

Structure (SMILES) | IC50 [µM]
COc1cncc(-c2ccc3nc(-c4nc5ccccc5[nH]4)oc3c2)c1 [Example 4, 2-(1H-Benzo[d]imidazol-2-yl)-6-(5-methoxypyridin-3-yl)benzo[d]oxazole trifluoroacetate] | < 5
O=S(=O)(Nc1cncc(-c2ccc3nc(-c4nc5ccccc5[nH]4)oc3c2)c1)c1cccc(F)c1 [Example 19, N-(5-(2-(1H-Benzo[d]imidazol-2-yl)benzo[d]oxazol-6-yl)pyridin-3-yl)-3-fluorobenzene-sulfonamide] | < 5
O=S(=O)(Nc1cncc(-c2ccc3nc(-c4nc5ccccc5[nH]4)oc3c2)c1)N1CCCCC1 [Example 20, N-(5-(2-(1H-Benzo[d]imidazol-2-yl)benzo[d]oxazol-6-yl)pyridin-3-yl)piperidine-1-sulfonamide] | < 5
CN(C)S(=O)(=O)Nc1cncc(-c2ccc3nc(-c4nc5ccccc5[nH]4)oc3c2)c1 [Example 21, N′-{5-[2-(1H-Benzimidazol-2-yl)-1,3-benzoxazol-6-yl]-pyridin-3-yl}-N,N-dimethylsulfamide] | < 1
CN(C)S(=O)(=O)Nc1cc(-c2ccc3nc(-c4nc5ccccc5[nH]4)oc3c2)cnc1F [Example 23, N′-{5-[2-(1H-Benzimidazol-2-yl)-1,3-benzoxazol-6-yl]-2-fluoropyridin-3-yl}-N,N-dimethylsulfamide] | < 1
CC(C)S(=O)(=O)Nc1cncc(-c2ccc3nc(-c4nc5ccccc5[nH]4)oc3c2)c1 [Example 24, N-(5-(2-(1H-Benzo[d]imidazol-2-yl)benzo[d]oxazol-6-yl)pyridin-3-yl)propane-2-sulfonamide] | ≥ 5
CCS(=O)(=O)Nc1cc(-c2ccc3nc(-c4nc5ccccc5[nH]4)oc3c2)cnc1Cl [Example 26, N-(5-(2-(1H-Benzo[d]imidazol-2-yl)benzo[d]oxazol-6-yl)-2-chloropyridin-3-yl)ethanesulfonamide] | < 1
CCS(=O)(=O)Nc1cc(-c2ccc3nc(-c4nc5ccccc5[nH]4)oc3c2)cnc1F [Example 27, N-(5-(2-(1H-Benzo[d]imidazol-2-yl)benzo[d]oxazol-6-yl)-2-fluoropyridin-3-yl)ethanesulfonamide] | < 1
Cc1ncc(-c2ccc3nc(-c4nc5ccccc5[nH]4)oc3c2)cc1NS(=O)(=O)c1ccc(F)cc1 [Example 28, N-(5-(2-(1H-Benzo[d]imdiazol-2-yl)benzo[d]oxazol-6-yl)-2-methylpyridin-3-yl)-4-fluorobenzene-sulfonamide] | < 1
O=S(=O)(Nc1cc(-c2ccc3nc(-c4nc5ccccc5[nH]4)oc3c2)cnc1F)c1ccc(F)cc1 [Example 30, N-(5-(2-(1H-Benzo[d]imidazol-2-yl)benzo[d]oxazol-6-yl)-2-fluoropyridin-3-yl)-4-fluorobenzene-sulfonamide] | < 1
CN1CCN(S(=O)(=O)Nc2cncc(-c3ccc4nc(-c5nc6ccccc6[nH]5)oc4c3)c2)CC1 [Example 31, N-(5-(2-(1H-Benzo[d]imidazol-2-yl)benzo[d]oxazol-6-yl)pyridin-3-yl)-4-methylpiperazine-1-sulfonamide] | < 1
CN1CCN(S(=O)(=O)Nc2cc(-c3ccc4nc(-c5nc6ccccc6[nH]5)oc4c3)cnc2F)CC1 [Example 32, N-(5-(2-(1H-Benzo[d]imidazol-2-yl)benzo[d]oxazol-6-yl)-2-fluoropyridin-3-yl)-4-methylpiperazine-1-sulfonamide] | < 1
CN(C)S(=O)(=O)c1cncc(-c2ccc3nc(-c4nc5ccccc5[nH]4)oc3c2)c1 [Example 37, 5-[2-(1H-benzimidazol-2-yl)-1,3-benzoxazol-6-yl]-N,N-dimethylpyridine-3-sulfonamide] | < 5
CCS(=O)(=O)Nc1cncc(-c2ccc3nc(-c4ncc[nH]4)oc3c2)c1 [Example 40, N-(5-(2-(1H-Imidazol-2-yl)benzo[d]oxazol-6-yl)pyridin-3-yl)ethanesulfonamide] | < 5
COc1cncc(-c2ccc3nc(-c4cnc(C5CC5)[nH]4)oc3c2)c1 [Example 42, 2-(2-Cyclopropyl-1H-imidazol-5-yl)-6-(5-methoxypyridin-3-yl)benzo[d]oxazole] | ≥ 5
c1ccc(Cn2cc(-c3ccc4nc(-c5nc6ccccc6[nH]5)oc4c3)cn2)cc1 [Example 48, 2-(1H-Benzimidazol-2-yl)-6-(1-benzyl-1H-pyrazol-4-yl)-1,3-benzoxazole] | ≥ 5
c1ccc2[nH]c(-c3nc4ccc(-c5ccc6[nH]ncc6c5)cc4o3)nc2c1 [Example 49, 2-(1H-Benzimidazol-2-yl)-6-(1H-indazol-5-yl)-1,3-benzoxazole] | ≥ 5
CCS(=O)(=O)n1ncc2ccc(-c3ccc4nc(-c5nc6ccccc6[nH]5)oc4c3)cc21 [Example 52, 6-[1-(Ethylsulfonyl)-1H-indazol-6-yl]-2-(1H-benzimidazol-2-yl)-1,3-benzoxazole] | ≥ 5
CCn1ncc2ccc(-c3ccc4nc(-c5nc6ccccc6[nH]5)oc4c3)cc21 [Example 54, 2-(1H-Benzimidazol-2-yl)-6-(1-ethyl-1H-indazol-6-yl)-1,3-benzoxazole bis(trifluoroacetate)] | ≥ 5
Nc1ncc(-c2ccc3nc(-c4nc5ccccc5[nH]4)oc3c2)cc1C(F)(F)F [Example 56, 5-[2-(1H-Benzimidazol-2-yl)-1,3-benzoxazol-6-yl]-3-(trifluoromethyl)pyridin-2-amine bis(trifluoroacetate)] | ≥ 5
CCn1ncc2ncc(-c3ccc4nc(-c5nc6ccccc6[nH]5)oc4c3)cc21 [Example 57, 6-[2-(1H-Benzimidazol-2-yl)-1,3-benzoxazol-6-yl]-1-ethyl-1H-pyrazolo[4,3-b]pyridine tris(trifluoroacetate)] | ≥ 5
O=S(=O)(c1cncc(-c2ccc3nc(-c4nc5ccccc5[nH]4)oc3c2)c1)N1CCC(O)C1 (stereo not shown) [Example 58, 1-({5-[2-(1H-Benzimidazol-2-yl)-1,3-benzoxazol-6-yl]pyridin-3-yl}sulfonyl)pyrrolidin-3-ol bis(trifluoroacetate)] | ≥ 5
CCS(=O)(=O)Nc1cc(-c2ccc3nc(-c4nc5ccccc5[nH]4)oc3c2)ccc1F [Example 60, N-{5-[2-(1H-Benzimidazol-2-yl)-1,3-benzoxazol-6-yl]-2-fluorophenyl}ethanesulfonamide] | ≥ 5

More lines, now with the values ahead:

IC50 [µM] | Structure (SMILES)
< 5 | CC(C)Oc1cncc(-c2ccc3nc(-c4nc5ccccc5[nH]4)oc3c2)c1 [Example 15, 2-(1H-Benzo[d]imidazol-2-yl)-6-(5-isopropoxypyridin-3-yl)benzo[d]oxazole]
< 1 | O=S(=O)(Nc1cncc(-c2ccc3nc(-c4nc5ccccc5[nH]4)oc3c2)c1)c1ccc(F)cc1 [Example 17, N-(5-(2-(1H-Benzo[d]imidazol-2-yl)benzo[d]oxazol-6-yl)pyridin-3-yl)-4-fluorobenzenesulfonamide]
< 1 | Cc1ncc(-c2ccc3nc(-c4nc5ccccc5[nH]4)oc3c2)cc1NS(=O)(=O)N(C)C [Example 22, N′-{5-[2-(1H-Benzimidazol-2-yl)-1,3-benzoxazol-6-yl]-2-methylpyridin-3-yl}-N,N-dimethylsulfamide]
< 5 | CCS(=O)(=O)Nc1cc(-c2ccc3nc(-c4nc5ccccc5[nH]4)oc3c2)cnc1C [Example 25, N-(5-(2-(1H-Benzo[d]imidazol-2-yl)benzo[d]oxazol-6-yl)-2-methylpyridin-3-yl)ethanesulfonamide]
< 1 | O=S(=O)(Nc1cc(-c2ccc3nc(-c4nc5ccccc5[nH]4)oc3c2)cnc1Cl)c1ccc(F)cc1 [Example 29, N-(5-(2-(1H-Benzo[d]imidazol-2-yl)benzo[d]oxazol-6-yl)-2-chloropyridin-3-yl)-4-fluorobenzene-sulfonamide]
< 5 | N#Cc1cncc(-c2ccc3nc(-c4nc5ccccc5[nH]4)oc3c2)c1 [Example 35, 5-(2-(1H-Benzo[d]imidazol-2-yl)benzo[d]oxazol-6-yl)nicotinonitrile]
< 5 | CS(=O)(=O)c1cncc(-c2ccc3nc(-c4nc5ccccc5[nH]4)oc3c2)c1 [Example 36, 2-(1H-Benzo[d]imidazol-2-yl)-6-(5-(methylsulfonyl)pyridin-3-yl)benzo[d]oxazole]
< 1 | O=S(=O)(Nc1cncc(-c2ccc3nc(-c4ncc[nH]4)oc3c2)c1)c1ccc(F)cc1 [Example 39, N-(5-(2-(1H-Imidazol-2-yl)benzo[d]oxazol-6-yl)pyridin-3-yl)-4-fluorobenzenesulfonamide]
< 1 | CN(C)S(=O)(=O)Nc1cncc(-c2ccc3nc(-c4ncc[nH]4)oc3c2)c1 [Example 41, N′-{5-[2-(1H-Imidazol-2-yl)-1,3-benzoxazol-6-yl]pyridin-3-yl}-N,N-dimethylsulfamide]
≥ 5 | Cc1n[nH]c2ccc(-c3ccc4nc(-c5nc6ccccc6[nH]5)oc4c3)cc12 [Example 50, 2-(1H-Benzimidazol-2-yl)-6-(3-methyl-1H-indazol-5-yl)-1,3-benzoxazole]
< 1 | OC(c1cncc(-c2ccc3nc(-c4ncc[nH]4)oc3c2)c1)C(F)(F)F (stereo not shown) [Example 61, 1-(5-(2-(1H-Imidazol-2-yl)benzo[d]oxazol-6-yl)pyridin-3-yl)-2,2,2-trifluoroethanol bis(trifluoroacetate)]
